How the values were obtained:
LRRK2 wild type enzyme = LRRK2 wild type enzyme (Homo sapiens, UniProt Q5S007); experiment: Biochemical Assay: LRRK2 TR-FRET (LanthaScreen) kinase assay with LRRKtide substrate; conditions: LRRK2 Inhibition, Table 8
Outline: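 TR-FRET detection (Tb-labelled phospho-LRRKtide antibody, EDTA stop, 30 min) followed a 120 min, 23 °C reaction of 3 nM wild-type human LRRK2 with LRRKtide (400 nM) and ATP (25 μM) in Tris pH 8.0. Compounds: 11-point 3-fold series from 10 μM, 15 min enzyme preincubation.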

[1] = biological target: T1, wild type LRRK2 overexpressed in recombinant HEK-293T cells (Homo sapiens, UniProt Q5S007); experiment: pS935 LRRK2 Cell Assay (HTRF, phospho-LRRK2 Ser935); type: cell-based; conditions: LRRK2 Inhibition, Table 8, 2 hours compound incubation
T1 construct: host or cells: HEK293T (transient transfection with pCMV-LRRK2 WT plasmid)
Outline: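 Phospho-Ser935 LRRK2 measured by two-antibody HTRF (Eu-cryptate donor, d2 acceptor; 665/615 nm ratio) after overnight detection at 23° C. Before lysis, transiently LRRK2-transfected HEK-293T cells were exposed 2 h at 37° C to a 9-point, 3-fold series from 10 μM, with DMSO at 0.2%.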

T1 sequence (Q5S007 whole entry): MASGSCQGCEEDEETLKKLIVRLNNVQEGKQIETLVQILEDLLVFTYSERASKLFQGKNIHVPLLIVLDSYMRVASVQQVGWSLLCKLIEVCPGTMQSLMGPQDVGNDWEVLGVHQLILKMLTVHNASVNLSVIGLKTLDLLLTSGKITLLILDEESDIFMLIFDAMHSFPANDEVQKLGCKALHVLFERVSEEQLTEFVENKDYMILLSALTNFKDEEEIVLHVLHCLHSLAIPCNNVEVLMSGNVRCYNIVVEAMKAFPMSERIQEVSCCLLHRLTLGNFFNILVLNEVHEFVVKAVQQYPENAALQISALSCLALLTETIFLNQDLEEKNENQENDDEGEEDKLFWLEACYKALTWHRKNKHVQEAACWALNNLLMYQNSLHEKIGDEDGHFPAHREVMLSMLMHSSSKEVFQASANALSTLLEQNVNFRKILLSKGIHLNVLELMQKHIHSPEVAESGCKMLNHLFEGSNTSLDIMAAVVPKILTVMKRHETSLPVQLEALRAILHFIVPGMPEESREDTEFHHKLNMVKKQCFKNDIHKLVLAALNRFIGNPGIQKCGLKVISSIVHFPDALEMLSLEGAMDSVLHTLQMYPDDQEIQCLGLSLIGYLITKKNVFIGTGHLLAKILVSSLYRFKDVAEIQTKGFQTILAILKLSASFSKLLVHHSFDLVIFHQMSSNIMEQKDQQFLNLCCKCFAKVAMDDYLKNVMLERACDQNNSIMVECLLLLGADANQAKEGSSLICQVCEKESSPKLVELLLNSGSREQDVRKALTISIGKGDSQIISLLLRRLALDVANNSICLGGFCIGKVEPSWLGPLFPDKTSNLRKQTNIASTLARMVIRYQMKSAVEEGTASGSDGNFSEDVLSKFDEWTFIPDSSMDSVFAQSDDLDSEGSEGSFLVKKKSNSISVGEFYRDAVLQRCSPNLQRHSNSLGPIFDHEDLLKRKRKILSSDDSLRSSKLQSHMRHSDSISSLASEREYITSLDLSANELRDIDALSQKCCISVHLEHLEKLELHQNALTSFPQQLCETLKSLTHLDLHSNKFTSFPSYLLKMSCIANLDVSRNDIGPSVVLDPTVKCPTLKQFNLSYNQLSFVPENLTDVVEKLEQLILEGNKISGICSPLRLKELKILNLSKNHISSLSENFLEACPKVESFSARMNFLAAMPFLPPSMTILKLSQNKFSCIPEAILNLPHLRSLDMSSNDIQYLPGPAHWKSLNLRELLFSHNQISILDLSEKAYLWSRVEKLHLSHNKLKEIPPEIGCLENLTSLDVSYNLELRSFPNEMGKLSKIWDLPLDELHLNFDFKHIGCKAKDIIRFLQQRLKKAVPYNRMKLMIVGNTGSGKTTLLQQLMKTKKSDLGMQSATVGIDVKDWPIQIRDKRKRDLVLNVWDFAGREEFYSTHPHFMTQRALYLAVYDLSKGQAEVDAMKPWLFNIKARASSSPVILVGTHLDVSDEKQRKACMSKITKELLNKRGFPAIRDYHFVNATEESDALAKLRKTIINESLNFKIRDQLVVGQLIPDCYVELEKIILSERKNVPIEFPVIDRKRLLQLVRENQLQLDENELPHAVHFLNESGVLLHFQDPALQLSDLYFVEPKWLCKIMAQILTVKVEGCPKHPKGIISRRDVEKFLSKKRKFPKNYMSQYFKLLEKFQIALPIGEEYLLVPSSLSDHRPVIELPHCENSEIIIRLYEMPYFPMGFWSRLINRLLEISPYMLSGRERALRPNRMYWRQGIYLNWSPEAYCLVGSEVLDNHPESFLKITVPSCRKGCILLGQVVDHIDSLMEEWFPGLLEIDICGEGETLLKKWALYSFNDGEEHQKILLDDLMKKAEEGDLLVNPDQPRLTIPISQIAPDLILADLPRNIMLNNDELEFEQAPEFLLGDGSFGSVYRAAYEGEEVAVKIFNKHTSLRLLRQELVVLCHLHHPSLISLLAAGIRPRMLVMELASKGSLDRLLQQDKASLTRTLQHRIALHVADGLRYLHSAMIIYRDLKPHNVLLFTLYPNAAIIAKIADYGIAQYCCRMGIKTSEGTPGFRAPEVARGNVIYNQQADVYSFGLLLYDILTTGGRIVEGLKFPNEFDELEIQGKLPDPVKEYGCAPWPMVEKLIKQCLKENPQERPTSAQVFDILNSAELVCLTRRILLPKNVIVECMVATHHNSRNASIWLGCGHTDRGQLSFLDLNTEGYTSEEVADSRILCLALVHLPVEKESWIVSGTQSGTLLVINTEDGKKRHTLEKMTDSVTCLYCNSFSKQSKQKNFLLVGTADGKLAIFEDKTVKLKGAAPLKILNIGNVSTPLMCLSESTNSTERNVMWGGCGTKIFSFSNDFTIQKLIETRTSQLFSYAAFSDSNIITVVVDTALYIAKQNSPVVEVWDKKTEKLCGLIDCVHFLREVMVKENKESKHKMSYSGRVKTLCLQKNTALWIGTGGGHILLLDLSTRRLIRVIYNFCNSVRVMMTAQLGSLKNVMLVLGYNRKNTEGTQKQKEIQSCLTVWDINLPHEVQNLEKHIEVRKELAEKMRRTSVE
Sequence of LRRK2 wild type enzyme (Q5S007 whole entry): as above

| Compound | IC50 (LRRK2 wild type enzyme) | IC50 [1] |
| --- | --- | --- |
| C[C@@H]1C[C@H](n2c(CC(=O)N[C@@H](C)C3CC3)nc3cnc4ccc(C#N)cc4c32)CCO1 [Compound 8, 2-{8-cyano-1-[(2R,4R)-2-methyloxan-4-yl]-1H-imidazo[4,5-c]quinolin-2-yl}-N-[(1S)-1-cyclopropylethyl]acetamide] | 1.49 nM | 118 nM |
| C[C@@H]1C[C@H](n2c(CC(=O)Nc3ncc(C(F)(F)F)cn3)nc3cnc4ccc(C#N)cc4c32)CCO1 [Compound 355, N-[5-(trifluoromethyl)-2-pyrimidinyl]{3-[(2R,4R)-2-methyltetrahydro-2H-pyran-4-yl]-12-cyano-3,5,8-triazatricyclo[7.4.0.0^2,6]trideca-1(9),2(6),4,7,10,12-hexaen-4-yl}acetamide] | 0.491 nM | 3.92 nM |
| C[C@@H]1C[C@H](n2c([C@H]3CNC(=O)C3)nc3cnc4ccc(C#N)cc4c32)CCO1 [Compound 72, 1-[(2R,4R)-2-methyloxan-4-yl]-2-[(3R)-5-oxopyrrolidin-3-yl]-1H-imidazo[4,5-c]quinoline-8-carbonitrile] | 1.86 nM | 3600 nM |
| COc1ncncc1NC(=O)Cc1nc2cnc3ccc(C#N)cc3c2n1[C@@H]1CCO[C@H](C)C1 [Compound 251, N-(4-methoxy-5-pyrimidinyl){3-[(2R,4R)-2-methyltetrahydro-2H-pyran-4-yl]-12-cyano-3,5,8-triazatricyclo[7.4.0.0^2,6]trideca-1(9),2(6),4,7,10,12-hexaen-4-yl}acetamide] | 0.382 nM | 3.56 nM |
| C[C@@H]1C[C@H](n2c(CC(=O)Nc3nccs3)nc3cnc4ccc(C#N)cc4c32)CCO1 [Compound 335, N-(1,3-thiazol-2-yl){3-[(2R,4R)-2-methyltetrahydro-2H-pyran-4-yl]-12-cyano-3,5,8-triazatricyclo[7.4.0.0^2,6]trideca-1(9),2(6),4,7,10,12-hexaen-4-yl}acetamide] | 0.433 nM | 4.06 nM |
| Cc1nc(C)c(NC(=O)Cc2nc3cnc4ccc(Cl)cc4c3n2[C@@H]2CCO[C@H](C)C2)c(C)n1 [Compound 217, N-(2,4,6-trimethyl-5-pyrimidinyl){3-[(2R,4R)-2-methyltetrahydro-2H-pyran-4-yl]-12-chloro-3,5,8-triazatricyclo[7.4.0.0^2,6]trideca-1,4,6,8,10,12-hexaen-4-yl}acetamide] | 0.294 nM | 5.53 nM |
| C[C@@H]1C[C@H](n2c(CC(=O)NCCO)nc3cnc4ccc(Cl)cc4c32)CCO1 [Compound 163, 2-{8-chloro-1-[(2R,4R)-2-methyloxan-4-yl]-1H-imidazo[4,5-c]quinolin-2-yl}-N-(2-hydroxyethyl)acetamide] | 0.676 nM | 43.8 nM |
| C[C@@H]1C[C@H](n2c(CC(=O)NC3(C)CC3)nc3cnc4ccc(C#N)cc4c32)CCO1 [Compound 328, N-1-methylcyclopropyl{3-[(2R,4R)-2-methyltetrahydro-2H-pyran-4-yl]-12-cyano-3,5,8-triazatricyclo[7.4.0.0^2,6]trideca-1(9),2(6),4,7,10,12-hexaen-4-yl}acetamide] | 1.86 nM | 54.7 nM |
| C[C@@H]1C[C@H](n2c(CC(=O)Nc3ccn(C)c(=O)c3)nc3cnc4ccc(C#N)cc4c32)CCO1 [Compound 280, N-(1-methyl-2-oxo-1,2-dihydro-4-pyridyl){3-[(2R,4R)-2-methyltetrahydro-2H-pyran-4-yl]-12-cyano-3,5,8-triazatricyclo[7.4.0.0^2,6]trideca-1,4,6,8,10,12-hexaen-4-yl}acetamide] | 0.373 nM | 495 nM |
| C[C@@H]1C[C@H](n2c(CC(=O)Nc3ccno3)nc3cnc4ccc(C#N)cc4c32)CCO1 [Compound 165, 2-{8-cyano-1-[(2R,4R)-2-methyloxan-4-yl]-1H-imidazo[4,5-c]quinolin-2-yl}-N-(1,2-oxazol-5-yl)acetamide] | 0.789 nM | 10.6 nM |
| C[C@@H]1C[C@H](n2c(CC(=O)NCC3(CO)CC3)nc3cnc4ccc(C#N)cc4c32)CCO1 [Compound 242, N-[1-(hydroxymethyl)cyclopropyl]methyl{3-[(2R,4R)-2-methyltetrahydro-2H-pyran-4-yl]-12-cyano-3,5,8-triazatricyclo[7.4.0.0^2,6]trideca-1(9),2(6),4,7,10,12-hexaen-4-yl}acetamide] | 0.69 nM | 106 nM |
| Cc1cnc(NC(=O)Cc2nc3cnc4ccc(C#N)cc4c3n2[C@@H]2CCO[C@H](C)C2)cn1 [Compound 315, N-(5-methyl-2-pyrazinyl){3-[(2R,4R)-2-methyltetrahydro-2H-pyran-4-yl]-12-cyano-3,5,8-triazatricyclo[7.4.0.0^2,6]trideca-1(9),2(6),4,7,10,12-hexaen-4-yl}acetamide] | 0.471 nM | 2.52 nM |
| COc1ncc(NC(=O)Cc2nc3cnc4ccc(C#N)cc4c3n2[C@@H]2CCO[C@H](C)C2)cn1 [Compound 291, N-(2-methoxy-5-pyrimidinyl){3-[(2R,4R)-2-methyltetrahydro-2H-pyran-4-yl]-12-cyano-3,5,8-triazatricyclo[7.4.0.0^2,6]trideca-1,4,6,8,10,12-hexaen-4-yl}acetamide] | 0.527 nM | 18 nM |
| C[C@@H]1C[C@H](n2c(C3CC(=O)N(c4ccn(C)n4)C3)nc3cnc4ccc(C#N)cc4c32)CCO1 (stereo partly drawn) [Compound 100, 2-[1-(1-methyl-1H-pyrazol-3-yl)-5-oxopyrrolidin-3-yl]-1-[(2R,4R)-2-methyloxan-4-yl]-1H-imidazo[4,5-c]quinoline-8-carbonitrile] | 2.14 nM | 143 nM |
| Cc1onc(NC(=O)Cc2nc3cnc4ccc(C#N)cc4c3n2[C@@H]2CCO[C@H](C)C2)c1C [Compound 356, N-(4,5-dimethyl-3-isoxazolyl){3-[(2R,4R)-2-methyltetrahydro-2H-pyran-4-yl]-12-cyano-3,5,8-triazatricyclo[7.4.0.0^2,6]trideca-1(9),2(6),4,7,10,12-hexaen-4-yl}acetamide] | 0.439 nM | 7.78 nM |
| Cc1noc(NC(=O)Cc2nc3cnc4ccc(C#N)cc4c3n2[C@@H]2CCO[C@H](C)C2)c1C [Compound 349, N-(3,4-dimethyl-5-isoxazolyl){3-[(2R,4R)-2-methyltetrahydro-2H-pyran-4-yl]-12-cyano-3,5,8-triazatricyclo[7.4.0.0^2,6]trideca-1(9),2(6),4,7,10,12-hexaen-4-yl}acetamide] | 0.547 nM | 7.43 nM |
| C[C@@H]1C[C@H](n2c(CC(=O)Nc3cc(C(F)(F)F)no3)nc3cnc4ccc(C#N)cc4c32)CCO1 [Compound 342, N-[3-(trifluoromethyl)-5-isoxazolyl]{3-[(2R,4R)-2-methyltetrahydro-2H-pyran-4-yl]-12-cyano-3,5,8-triazatricyclo[7.4.0.0^2,6]trideca-1(9),2(6),4,7,10,12-hexaen-4-yl}acetamide] | 2.17 nM | 75.1 nM |
| C[C@@H]1C[C@H](n2c(CC(=O)NCc3cccnc3)nc3cnc4ccc(C#N)cc4c32)CCO1 [Compound 83, 2-{8-cyano-1-[(2R,4R)-2-methyloxan-4-yl]-1H-imidazo[4,5-c]quinolin-2-yl}-N-[(pyridin-3-yl)methyl]acetamide] | 0.33 nM | 25.1 nM |
| C[C@@H]1C[C@H](n2c(CC(=O)Nc3cccnc3CO)nc3cnc4ccc(C#N)cc4c32)CCO1 [Compound 283, N-[2-(hydroxymethyl)-3-pyridyl]{3-[(2R,4R)-2-methyltetrahydro-2H-pyran-4-yl]-12-cyano-3,5,8-triazatricyclo[7.4.0.0^2,6]trideca-1,4,6,8,10,12-hexaen-4-yl}acetamide] | 0.572 nM | 27.3 nM |
| C[C@@H]1C[C@H](n2c(CC(=O)N[C@H](C)C3CC3)nc3cnc4ccc(C#N)cc4c32)CCO1 [Compound 7, 2-{8-cyano-1-[(2R,4R)-2-methyloxan-4-yl]-1H-imidazo[4,5-c]quinolin-2-yl}-N-[(1R)-1-cyclopropylethyl]acetamide] | 0.794 nM | 47.2 nM |
| C[C@@H]1C[C@H](n2c(CC(N)=O)nc3cnc4ccc(C#N)cc4c32)CCO1 [Compound 16, 2-{8-cyano-1-[(2R,4R)-2-methyloxan-4-yl]-1H-imidazo[4,5-c]quinolin-2-yl}acetamide] | 1.15 nM | 146 nM |
| Cc1c(NC(=O)Cc2nc3cnc4ccc(C#N)cc4c3n2[C@@H]2CCO[C@H](C)C2)cnn1C [Compound 237, N-(1-methyl-5-methyl-4-pyrazolyl){3-[(2R,4R)-2-methyltetrahydro-2H-pyran-4-yl]-12-cyano-3,5,8-triazatricyclo[7.4.0.0^2,6]trideca-1,4,6,8,10,12-hexaen-4-yl}acetamide] | 0.405 nM | 23.4 nM |
| C[C@@H]1C[C@H](n2c(C3CC(=O)N(c4cnn(CCO)c4)C3)nc3cnc4ccc(C#N)cc4c32)CCO1 (stereo partly drawn) [Compound 123, 2-{1-[1-(2-hydroxyethyl)-1H-pyrazol-4-yl]-5-oxopyrrolidin-3-yl}-1-[(2R,4R)-2-methyloxan-4-yl]-1H-imidazo[4,5-c]quinoline-8-carbonitrile] | 1.41 nM | 4050 nM |
| C[C@@H]1C[C@H](n2c(CC(=O)N[C@H]3C[C@@H](OCc4ccn(C)n4)C3)nc3cnc4ccc(C#N)cc4c32)CCO1 [Compound 367, N-{(1s,3s)-3-[(1-methyl-3-pyrazolyl)methoxy]cyclobutyl}{3-[(2R,4R)-2-methyltetrahydro-2H-pyran-4-yl]-12-cyano-3,5,8-triazatricyclo[7.4.0.0^2,6]trideca-1,4,6,8,10,12-hexaen-4-yl}acetamide] | 0.597 nM | 94.8 nM |

— US20250270209A1 (INTERLINE THERAPEUTICS, INC., priority 2022, published 2025)
